Consider seven molecules from publication PMC7912516, “New Antimicrobials Based on the Adarotene Scaffold with Activity against Multi-Drug Resistant Staphylococcus aureus and Vancomycin-Resistant Enterococcus” (Antibiotics, 2021).

Values joined by “and” are separate entries in the source; they are usually repeats but may differ in a detail not shown here. Identical values can stand only once. Like-named read-outs stand apart in the source and are kept apart here. Where only a bound is given, the exact number is not on record here.

Broadly, the MBC is the lowest tested concentration that kills the bacteria rather than only halting them.

Assay [1] relates to methicillin-resistant S. aureus (MRSA) strain MW2. Set-up: method as in PMID 29590091. The following applies: ref [12]; cited from earlier work.
The subject of assay [2] is tumor cell line H-460 NCI. The arrangement: method as in PMID 32920362. The following applies: ± SD, ref [17], read-out: IC50 (concentration required for 50% inhibition of cell growth); cited from earlier work.
Assay [3] has as its system S. aureus strain 2 (MDR clinical isolate). Nature of the assay: MIC/MBC by broth micro-dilution (CLSI). It is filed as cell-based. The following applies: Staphylococcus aureus, modal value; for MBC: in square brackets. Here is the method:
(§1) To expand the previously obtained results compounds 16 and 17 were also tested on wider a selection of strains: two other MDR S. aureus and E. faecalis clinical isolates, the S. aureus ATCC 25923 and the E. faecalis ATCC 51299 reference strains. Compound 2, which was endowed with low antimicrobial activity, was tested as well, to confirm its low efficacy. Adarotene was used as control compound (Table 2).
(§2) MICs and MBCs were determined according to CLSI (Clinical and Laboratory Standards Institute) guidelines, in triplicate. Results are shown as modal values of the three replicates. According to MIC and MBC data, the killing rate was calculated as the ratio between MBC and MIC on which basis it is possible to define the compounds tested as bactericides (killing rate = 1–4), or bacteriostatic (killing rate > 4).
(§3) Preparation of the solution containing molecules: for each molecule to be tested, solutions were made as DMSO stock, with a concentration of 2.560 mg/mL. Scalar dilutions were than prepared directly on plates by using Mueller Hinton Broth (MHB) as a growth medium (range 0.5–256 µg/mL).
(§4) Bacterial suspension preparation: cryostrains preserved at −80 °C were recovered by incubation in growth medium (Brain Heart Infusion Broth, BHI) for 24–48 h at 35 ± 2 °C followed by passages in agar growth medium (Columbia Blood Agar). Colonies with less than 30 h were suspended in MHB with the purpose to prepare a bacterial suspension with a turbidity of 0.5 MF, containing approximately 1.5 × 10^8 cfu/mL. This suspension was than diluted in MHB until reaching a final concentration of 5 × 10^4 CFU/well. Simultaneously, check in broth-microdilution only with solvent (in order to exclude that the effect of growth inhibition might be due to the drug solution solvent), positive growth control in absence of DMSO and drug, and negative purity control only with injection broth were performed.
S. aureus strain 2 (collection, MDR): mecA negative; β-lactamase positive, resistant to erythromycin, gentamicin, clindamycin and fusidic acid.
Background: Broth dilution looks for growth in wells or tubes with falling amounts of substance.

Assay [4] relates to E. faecalis strain 2 (MDR clinical isolate). Nature of the assay: MIC/MBC by broth micro-dilution (CLSI). It is filed as cell-based. The following applies: Enterococcus faecalis, modal value; for MBC: in square brackets. Here is the method: as §1, §2, §3, §4
E. faecalis strain 2 (collection, MDR) vanA/B negative; aminoglycosides high-level resistant to aminoglycosides (gentamicin and strseptomycin) and ampicillin.

Assay [5] has as its system E. faecalis ATCC 51299 (reference strain, vanB positive). The experiment in a line: MIC/MBC by broth micro-dilution (CLSI). As to conditions: Enterococcus faecalis; for MBC: ATCC51299, in square brackets, modal value; for MIC: ATCC51299, modal value. It is filed as cell-based. Here is the method:
as §1, §2, §3, §4
E. faecalis ATCC 51299 (reference strain): vanB positive.

The subject of assay [6] is E. faecalis strain 1 (MDR clinical isolate). The experiment in a line: MIC/MBC by broth micro-dilution (CLSI). It is filed as cell-based, Enterococcus faecalis. The following applies: for MBC: in square brackets. Here is the method:
(§5) The compounds were initially tested with a methicillin-resistant S. aureus and an E. faecalis clinical isolates (details in the experimental section), two MDR strains according to definition by Magiorakos et al.. The activity of studied compounds was assessed by broth micro-dilution method. Minimal Inhibitory Concentration (MIC), and Minimal Bactericidal Concentration (MBC) were determined and possible bacteriostatic or bactericidal activity was also investigated.
as §2, §3, §4
E. faecalis strain 1 (collection, MDR) vanA/B negative; aminoglycosides high-level resistant to aminoglycosides (gentamicin and streptomycin) and ampicillin.

In assay [7] the test system is S. aureus strain 1 (MDR clinical isolate, MRSA, mecA positive). Nature of the assay: MIC/MBC by broth micro-dilution (CLSI). The following applies: for MIC / MBC: S. aureus Strain 1; for bactericidal or bacteriostatic activity (killing rate = MBC/MIC): S. aureus and E. faecalis, bactericides killing rate = 1–4, bacteriostatic > 4; for MBC: in square brackets. It is filed as cell-based, Staphylococcus aureus. Here is the method:
as §5, §2, §3, §4
S. aureus strain 1 (collection, MDR): mecA positive; MRSA, β-lactamase positive, resistant to ciprofloxacin, gentamicin and erythromycin.

In assay [8] the test system is S. aureus ATCC 25923 (reference strain). Nature of the assay: MIC/MBC by broth micro-dilution (CLSI). As to conditions: Staphylococcus aureus; for MBC: ATCC25923, in square brackets, modal value; for MIC: ATCC25923, modal value. It is filed as cell-based. Here is the method:
as §1, §2, §3, §4
S. aureus ATCC 25923 (reference strain): mecA negative; multi-susceptible.

For assay [9], the system named is tumor cell line H-460 NCI. Nature of the assay: Cytotoxic activity, inhibition of cell growth. It is filed as cell-based. As to conditions: Homo sapiens, NCI-H460; H-460 cell line, unpublished results; ± SD; read-out: IC50 (concentration required for 50% inhibition of cell growth). From the text:
Table 1 Antimicrobial activity of adarotene derivatives 1–20 against MDR clinical strains of S. aureus and E. faecalis and cytotoxic activity. | column: IC50 ^a (µM)

Where [10] appears, read: Enterococcus faecalis, modal value.
[11] abbreviates: Enterococcus faecalis, modal value, read-out: MIC.
[12] abbreviates: modal value of three replicates.
The mark [13] stands for this setting: Staphylococcus aureus, MRSA, modal value of three replicates, read-out: MIC.
The mark [14] stands for this setting: Staphylococcus aureus, MRSA, modal value, read-out: MIC.
Where [15] appears, read: Staphylococcus aureus, MRSA, modal value.
Where [16] appears, read: Enterococcus faecalis, modal value of three replicates, read-out: MIC.

`O=C(O)c1ccc(-c2ccc3cc(O)c(C45CC6CC(CC(C6)C4)C5)cc3c2)cc1` [CD1530]: the “activity against MRSA strain MW2” value in assay [1] was “exhibit activity”.

Consider `CON=Cc1cc(/C=C/C(=O)O)ccc1-c1ccc(O)c(C23CC4CC(CC(C4)C2)C3)c1` [Compound 17], for which, in [2], the IC50 was more than 10 µM. The MBC in assay [3] was 32 µg/mL and 74 µM; in assay [4], 16 µg/mL and 36 µM; in assay [5], 32 µg/mL and 74 µM; in [6] (setting [10]) it was 16 µg/mL and 38 µM; in [7] (setting [15]), 4 µg/mL and 9 µM; in assay [8] it was 4 µg/mL and 10 µM. For the same molecule, the MIC is 4 µg/mL and 10 µM in [3]; 8 µg/mL and 18 µM in assay [4]; 8 µg/mL and 18 µM in [5]; 19 µM in assay [6] (setting [11]); 2 to 8 µg/mL and 8 µg/mL in [6] (setting [12]); 4 [4] µg/mL in assay [7] (setting [12]). Also, the MIC is 4 µg/mL in [7] (setting [13]); 9 µM in assay [7] (setting [14]); 2 µg/mL and 5 µM in assay [8]. Further, in assay [7], the “bactericidal or bacteriostatic activity (killing rate = MBC/MIC)” value was “bactericidal effect”.

With `CCCCC/C=C\C/C=C\CCCCCCCC(=O)Oc1ccc(-c2ccc(/C=C/C(=O)O)cc2)cc1C12CC3CC(CC(C3)C1)C2` [Compound 3], the MIC in assay [6] (setting [16]) came to 128 µg/mL; in assay [6] (setting [11]), 201 µM; in [7] (setting [13]) it was 32 µg/mL; in assay [7] (setting [14]) it was 50 µM. Moreover, the IC50 in assay [9] was 7.8 ± 0.7 µM.

Turning to `N#C/C(=C\c1ccc(-c2ccc(O)c(C34CC5CC(CC(C5)C3)C4)c2)cc1)C(=O)O` [Compound 9], the MBC is 4 µg/mL and 10 µM in [6] (setting [10]); 4 µg/mL and 10 µM in [7] (setting [15]). Besides, the MIC in assay [6] (setting [16]) was 1 to 4 µg/mL; in [6] (setting [11]), 2 µM; in assay [6] (setting [12]) it was 1 µg/mL; in assay [7] (setting [12]), 2 µg/mL; in assay [7] (setting [13]), 2 to 4 µg/mL; in [7] (setting [14]), 5 µM. Further, the IC50 in assay [9] is more than 10 µM.

For the molecule `O=C(O)c1ccc2cc(-c3ccc(O)c(C45CC6CC(CC(C6)C4)C5)c3)ccc2c1` [CD437], the “activity against MRSA strain MW2” value in assay [1] is on record as “exhibit activity”.

As to `O=C(O)/C=C/c1ccc(-c2cc(CNC(=O)Nc3ccccc3)c(O)c(C34CC5CC(CC(C5)C3)C4)c2)cc1` [Compound 14], the MBC was 16 µg/mL and 31 µM in [6] (setting [10]); 8 µg/mL and 15 µM in [7] (setting [15]). In addition, the MIC in [6] (setting [16]) came out at 4 µg/mL; in assay [6] (setting [11]), 8 µM; in [7] (setting [13]) it was 8 µg/mL; in assay [7] (setting [14]), 15 µM. The IC50 in [9] is more than 10 µM.

`CC(C)(C)ON=Cc1cc(/C=C/C(=O)O)ccc1-c1ccc(O)c(C23CC4CC(CC(C4)C2)C3)c1` [Compound 16]: the IC50 in assay [2] is more than 10 µM. Moreover, the MBC was 2 µg/mL and 4 µM in [3]; 8 µg/mL and 16 µM in assay [4]; 8 µg/mL and 16 µM in assay [5]; 4 µg/mL and 8 µM in assay [6] (setting [10]); 4 µg/mL and 8 µM in assay [7] (setting [15]); 4 µg/mL and 8 µM in assay [8]. The MIC in assay [3] was 2 µg/mL and 4 µM; in assay [4], 2 µg/mL and 4 µM; in [5] it was 2 µg/mL and 4 µM; in assay [6] (setting [16]) it was 2 to 8 µg/mL; in assay [6] (setting [11]), 4 µM; in assay [6] (setting [12]) it was 2 µg/mL. The MIC is 4 [4] µg/mL in [7] (setting [12]); 4 µg/mL in assay [7] (setting [13]); 8 µM in assay [7] (setting [14]); 2 µg/mL and 4 µM in assay [8]. In [7], the “bactericidal or bacteriostatic activity (killing rate = MBC/MIC)” value is listed as “bactericidal effect”.
